Source: BindingDB's records for PubMed 9454810 (Sanofi Recherche, 1998)

How the values were obtained:
[1] = molecular target: Vasopressin V2 receptor (Homo sapiens, UniProt P30518)
[2] = molecular target: Neurotensin/neuromedin N (Human, UniProt P30990)
[3] = molecular target: Gamma-aminobutyric acid receptor subunit alpha-1 (Homo sapiens, UniProt P14867)
[4] = molecular target: Histamine H2 receptor (Homo sapiens, UniProt P25021)
[5] = molecular target: Thromboxane A2 receptor (Homo sapiens, UniProt P21731)
[6] = molecular target: Adenosine receptor A1 (Homo sapiens, UniProt P30542)
[7] = molecular target: Neuronal acetylcholine receptor subunit alpha-3 (Homo sapiens, UniProt P32297)
[8] = molecular target: Galanin peptides (Homo sapiens, UniProt P22466)
[9] = molecular target: P2X purinoceptor 1 (Homo sapiens, UniProt P51575)
[10] = molecular target: Muscarinic acetylcholine receptor M1 (Homo sapiens, UniProt P11229)
[11] = molecular target: Leukotriene B4 receptor 2 (Homo sapiens, UniProt Q9NPC1)
[12] = molecular target: 5-hydroxytryptamine receptor 3A (Homo sapiens, UniProt P46098)
[13] = molecular target: P2Y purinoceptor 1 (Homo sapiens, UniProt P47900)
[14] = molecular target: Pro-thyrotropin-releasing hormone (Homo sapiens, UniProt P20396)
[15] = molecular target: Endothelin receptor type B (Homo sapiens, UniProt P24530)
[16] = molecular target: Calcium-activated potassium channel subunit beta-1 (Homo sapiens, UniProt Q16558)
[17] = molecular target: Voltage-dependent N-type calcium channel subunit alpha-1B (Homo sapiens, UniProt Q00975)
[18] = molecular target: Substance-K receptor (Homo sapiens, UniProt P21452)
[19] = molecular target: AP-4 complex subunit sigma-1 (Homo sapiens, UniProt Q9Y587)
[20] = molecular target: Substance-P receptor (Homo sapiens, UniProt P25103)
[21] = molecular target: Beta-2 adrenergic receptor (Homo sapiens, UniProt P07550)
[22] = molecular target: Neuropeptide Y receptor type 2 (Homo sapiens, UniProt P49146)
[23] = molecular target: VIP peptides (Homo sapiens, UniProt P01282)
[24] = molecular target: Vasopressin V1b receptor (Homo sapiens, UniProt P47901)
[25] = molecular target: Peripheral-type benzodiazepine receptor-associated protein 1 (Homo sapiens, UniProt O95153)
[26] = molecular target: Alpha-1A adrenergic receptor (Homo sapiens, UniProt P35348)
[27] = molecular target: Adenosine receptor A2a (Homo sapiens, UniProt P29274)
[28] = molecular target: Histamine H3 receptor (Homo sapiens, UniProt Q9Y5N1)
[29] = molecular target: 5-hydroxytryptamine receptor 1D (Homo sapiens, UniProt P28221)
[30] = molecular target: 5-hydroxytryptamine receptor 1B (Homo sapiens, UniProt P28222)
[31] = molecular target: Protein kinase C alpha type (Homo sapiens, UniProt P17252)
[32] = molecular target: Muscarinic acetylcholine receptor M4 (Homo sapiens, UniProt P08173)
[33] = molecular target: Muscarinic acetylcholine receptor M2 (Homo sapiens, UniProt P08172)
[34] = molecular target: Potassium voltage-gated channel subfamily A member 1 (Homo sapiens, UniProt Q09470)
[35] = molecular target: 5-hydroxytryptamine receptor 2C (Homo sapiens, UniProt P28335)
[36] = molecular target: D(1A) dopamine receptor (Homo sapiens, UniProt P21728)
[37] = molecular target: B2 bradykinin receptor (Homo sapiens, UniProt P30411)
[38] = molecular target: Gastrin/cholecystokinin type B receptor (Homo sapiens, UniProt P32239)
[39] = molecular target: Type-1 angiotensin II receptor (Homo sapiens, UniProt P30556)
[40] = molecular target: Histamine H1 receptor (Homo sapiens, UniProt P35367)

Measured: Ki

Chain of Substance-P receptor (P25103 whole entry): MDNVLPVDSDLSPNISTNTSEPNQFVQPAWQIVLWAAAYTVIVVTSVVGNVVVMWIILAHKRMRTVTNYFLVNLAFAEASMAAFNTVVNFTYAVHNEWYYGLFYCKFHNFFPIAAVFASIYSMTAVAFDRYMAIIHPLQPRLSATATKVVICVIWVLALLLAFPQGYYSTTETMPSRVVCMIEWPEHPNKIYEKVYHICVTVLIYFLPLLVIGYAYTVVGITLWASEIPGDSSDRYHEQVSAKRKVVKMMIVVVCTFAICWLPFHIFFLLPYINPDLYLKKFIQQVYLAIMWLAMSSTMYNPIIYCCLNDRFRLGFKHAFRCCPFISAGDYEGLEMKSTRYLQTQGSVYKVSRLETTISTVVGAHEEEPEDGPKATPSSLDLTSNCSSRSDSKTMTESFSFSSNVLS
Chain of Muscarinic acetylcholine receptor M4 (P08173 whole entry): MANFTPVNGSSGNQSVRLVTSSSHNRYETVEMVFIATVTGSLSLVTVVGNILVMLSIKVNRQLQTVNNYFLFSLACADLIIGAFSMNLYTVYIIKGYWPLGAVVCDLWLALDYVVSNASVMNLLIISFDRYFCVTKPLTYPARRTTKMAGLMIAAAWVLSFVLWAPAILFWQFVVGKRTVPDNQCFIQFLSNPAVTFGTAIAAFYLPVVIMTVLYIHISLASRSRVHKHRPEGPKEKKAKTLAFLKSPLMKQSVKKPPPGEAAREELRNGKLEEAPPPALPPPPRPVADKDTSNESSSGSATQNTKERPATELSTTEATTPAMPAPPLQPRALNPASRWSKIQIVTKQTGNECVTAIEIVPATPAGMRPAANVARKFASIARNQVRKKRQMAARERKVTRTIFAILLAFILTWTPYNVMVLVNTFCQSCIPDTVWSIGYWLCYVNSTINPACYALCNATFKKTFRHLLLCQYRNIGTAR
Chain of Histamine H3 receptor (Q9Y5N1 whole entry): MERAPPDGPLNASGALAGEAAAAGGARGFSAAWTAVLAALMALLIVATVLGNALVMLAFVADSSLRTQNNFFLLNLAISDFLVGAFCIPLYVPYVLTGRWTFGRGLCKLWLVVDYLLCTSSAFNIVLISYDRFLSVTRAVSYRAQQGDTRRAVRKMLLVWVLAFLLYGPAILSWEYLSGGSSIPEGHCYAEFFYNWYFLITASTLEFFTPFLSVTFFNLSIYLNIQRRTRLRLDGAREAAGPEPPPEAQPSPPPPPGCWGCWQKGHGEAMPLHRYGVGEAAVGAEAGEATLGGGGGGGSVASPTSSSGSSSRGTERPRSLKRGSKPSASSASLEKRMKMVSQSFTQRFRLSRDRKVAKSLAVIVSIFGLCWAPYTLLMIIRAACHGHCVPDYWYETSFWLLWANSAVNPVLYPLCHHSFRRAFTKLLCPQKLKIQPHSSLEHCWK
Chain of Histamine H1 receptor (P35367 whole entry): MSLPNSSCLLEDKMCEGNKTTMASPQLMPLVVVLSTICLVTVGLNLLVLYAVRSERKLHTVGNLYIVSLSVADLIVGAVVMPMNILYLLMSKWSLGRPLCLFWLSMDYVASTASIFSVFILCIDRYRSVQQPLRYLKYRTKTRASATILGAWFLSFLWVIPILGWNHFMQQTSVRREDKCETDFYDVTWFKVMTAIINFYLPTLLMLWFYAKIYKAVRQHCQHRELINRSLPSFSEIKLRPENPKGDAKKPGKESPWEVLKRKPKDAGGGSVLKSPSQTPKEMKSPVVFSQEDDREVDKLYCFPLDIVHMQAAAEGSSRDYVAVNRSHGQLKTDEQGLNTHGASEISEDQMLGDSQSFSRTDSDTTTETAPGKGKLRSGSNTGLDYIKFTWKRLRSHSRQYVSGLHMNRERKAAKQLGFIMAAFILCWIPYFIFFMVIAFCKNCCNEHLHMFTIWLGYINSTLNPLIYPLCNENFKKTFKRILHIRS
Chain of Beta-2 adrenergic receptor (P07550 whole entry): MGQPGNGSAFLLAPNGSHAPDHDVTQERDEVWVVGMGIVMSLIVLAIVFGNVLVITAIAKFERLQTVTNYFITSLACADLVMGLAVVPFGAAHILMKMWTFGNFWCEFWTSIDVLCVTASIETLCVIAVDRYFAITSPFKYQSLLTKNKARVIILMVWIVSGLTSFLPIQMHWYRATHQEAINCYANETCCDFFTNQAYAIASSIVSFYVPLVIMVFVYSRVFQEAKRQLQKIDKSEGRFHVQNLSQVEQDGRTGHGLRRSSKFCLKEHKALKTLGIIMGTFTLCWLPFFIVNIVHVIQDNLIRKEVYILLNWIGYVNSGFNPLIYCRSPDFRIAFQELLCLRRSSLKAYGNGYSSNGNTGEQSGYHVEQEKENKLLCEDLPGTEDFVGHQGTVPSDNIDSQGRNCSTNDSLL
Chain of Vasopressin V1b receptor (P47901 whole entry): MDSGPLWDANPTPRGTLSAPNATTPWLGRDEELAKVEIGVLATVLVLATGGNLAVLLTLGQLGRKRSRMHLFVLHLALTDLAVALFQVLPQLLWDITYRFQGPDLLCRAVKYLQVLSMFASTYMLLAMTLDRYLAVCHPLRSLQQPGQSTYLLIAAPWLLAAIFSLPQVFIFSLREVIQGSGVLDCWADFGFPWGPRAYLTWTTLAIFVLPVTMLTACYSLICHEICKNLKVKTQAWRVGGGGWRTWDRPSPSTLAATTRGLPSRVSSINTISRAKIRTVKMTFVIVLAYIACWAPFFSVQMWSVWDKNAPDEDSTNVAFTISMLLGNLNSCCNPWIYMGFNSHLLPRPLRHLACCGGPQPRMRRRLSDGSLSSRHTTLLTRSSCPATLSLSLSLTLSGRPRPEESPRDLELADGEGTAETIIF
Chain of Adenosine receptor A1 (P30542 whole entry): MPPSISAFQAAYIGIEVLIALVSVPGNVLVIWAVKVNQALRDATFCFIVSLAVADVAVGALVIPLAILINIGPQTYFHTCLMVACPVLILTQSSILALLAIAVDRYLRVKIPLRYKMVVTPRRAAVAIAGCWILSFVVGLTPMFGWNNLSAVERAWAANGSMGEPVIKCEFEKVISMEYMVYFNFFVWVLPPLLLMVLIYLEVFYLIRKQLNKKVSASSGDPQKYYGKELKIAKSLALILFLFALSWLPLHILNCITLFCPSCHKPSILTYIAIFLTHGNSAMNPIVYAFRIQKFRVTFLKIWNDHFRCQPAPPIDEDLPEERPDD
Chain of D(1A) dopamine receptor (P21728 whole entry): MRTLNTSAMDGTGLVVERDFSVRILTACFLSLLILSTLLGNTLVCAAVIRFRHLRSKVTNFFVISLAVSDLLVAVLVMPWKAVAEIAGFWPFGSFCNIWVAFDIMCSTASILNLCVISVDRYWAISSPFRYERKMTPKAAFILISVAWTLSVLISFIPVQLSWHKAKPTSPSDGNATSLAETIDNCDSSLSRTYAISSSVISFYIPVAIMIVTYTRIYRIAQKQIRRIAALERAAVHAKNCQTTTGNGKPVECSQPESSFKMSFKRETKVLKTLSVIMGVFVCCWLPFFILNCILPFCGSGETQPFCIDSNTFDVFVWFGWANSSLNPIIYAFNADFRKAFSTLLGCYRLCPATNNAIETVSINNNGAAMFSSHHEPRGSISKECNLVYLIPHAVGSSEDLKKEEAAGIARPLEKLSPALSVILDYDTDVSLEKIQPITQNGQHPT
Chain of P2Y purinoceptor 1 (P47900 whole entry): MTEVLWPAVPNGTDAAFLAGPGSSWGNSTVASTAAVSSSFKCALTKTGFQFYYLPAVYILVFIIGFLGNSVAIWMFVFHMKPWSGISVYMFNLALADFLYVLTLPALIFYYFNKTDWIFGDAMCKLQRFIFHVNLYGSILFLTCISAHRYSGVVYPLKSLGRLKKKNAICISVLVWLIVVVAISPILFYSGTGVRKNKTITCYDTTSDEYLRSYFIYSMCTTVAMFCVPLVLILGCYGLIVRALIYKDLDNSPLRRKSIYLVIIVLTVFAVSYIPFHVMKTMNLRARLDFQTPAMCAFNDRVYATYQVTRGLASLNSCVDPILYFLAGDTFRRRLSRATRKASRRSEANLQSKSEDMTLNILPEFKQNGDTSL
Chain of VIP peptides (P01282 125-152 limits assumed): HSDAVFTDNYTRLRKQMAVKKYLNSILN
Chain of Muscarinic acetylcholine receptor M1 (P11229 whole entry): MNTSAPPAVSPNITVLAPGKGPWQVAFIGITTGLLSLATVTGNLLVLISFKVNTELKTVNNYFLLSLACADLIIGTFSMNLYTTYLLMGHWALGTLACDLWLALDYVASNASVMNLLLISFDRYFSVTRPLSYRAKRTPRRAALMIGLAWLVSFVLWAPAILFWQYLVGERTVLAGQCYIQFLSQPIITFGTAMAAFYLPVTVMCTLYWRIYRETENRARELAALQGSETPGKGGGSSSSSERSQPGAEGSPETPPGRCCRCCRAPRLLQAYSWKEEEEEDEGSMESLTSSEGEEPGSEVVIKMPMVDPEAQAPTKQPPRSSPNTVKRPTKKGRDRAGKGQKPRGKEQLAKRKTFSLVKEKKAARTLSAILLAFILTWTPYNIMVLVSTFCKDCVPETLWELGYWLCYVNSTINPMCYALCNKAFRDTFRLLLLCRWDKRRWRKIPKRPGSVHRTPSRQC
Chain of Thromboxane A2 receptor (P21731 whole entry): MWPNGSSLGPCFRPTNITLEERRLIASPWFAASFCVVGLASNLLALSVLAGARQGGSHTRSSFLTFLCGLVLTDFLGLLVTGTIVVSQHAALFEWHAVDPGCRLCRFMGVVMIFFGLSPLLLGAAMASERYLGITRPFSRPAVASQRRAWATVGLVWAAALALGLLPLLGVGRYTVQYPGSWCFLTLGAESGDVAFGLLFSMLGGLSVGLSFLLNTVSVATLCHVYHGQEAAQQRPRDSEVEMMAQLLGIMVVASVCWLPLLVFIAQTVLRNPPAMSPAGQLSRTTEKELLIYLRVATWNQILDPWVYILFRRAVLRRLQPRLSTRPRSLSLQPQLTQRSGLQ
Chain of AP-4 complex subunit sigma-1 (Q9Y587 whole entry, one chain of several): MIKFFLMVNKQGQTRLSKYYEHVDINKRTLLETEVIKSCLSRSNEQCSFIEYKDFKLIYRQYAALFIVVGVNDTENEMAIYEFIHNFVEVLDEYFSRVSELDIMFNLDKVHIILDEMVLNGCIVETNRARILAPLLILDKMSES
Chain of Galanin peptides (P22466 33-62 limits assumed): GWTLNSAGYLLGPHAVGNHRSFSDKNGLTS

Cc1ccc(Cn2nc(C(=O)NC3C(C)(C)C4CC[C@@]3(C)C4)cc2-c2ccc(Cl)c(C)c2)cc1 (stereo not given in full) [N-(1,3,3-trimethylbicyclo(2.2.1)heptan-2-yl)-5-(4-chloro-3-methylphenyl)-1-(4-methylbenzyl)pyrazole-3-carboxamide]
> 10 µM: all assays above
